Data set [1] can be described thus: Molar enthalpy of transition or fusion. Conditions: Crystal; DSC.
The conditions of data set [2]: Crystal; DTA.

± gives the expanded uncertainty stated by the source.

In the case of `CC(C)(c1ccc(O)cc1)c1ccc(O)cc1` [2,2-(4',4''-dihydroxy)diphenylpropane], the “Molar enthalpy of transition or fusion” value in data set [1] came out at 7.34 ± 0.215 kcal/mol. Moreover, in data set [2], the Normal melting temperature worked out at 156.50 ± 0.5 °C.

(Values after the NIST ThermoML archive (doi:10.1021/je200640q).)
